Test results taken from PubChem BioAssay (NCI).
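These data come from cells grown in 96-well plates and exposed to compound for 48 hours at five concentrations. TGI: total growth inhibition.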

Key:
Experiment in all cases: inhibition of tumour cell growth, NCI panel, 48 h
[1] = test system: 786-0 renal
[2] = test system: A498 renal
[3] = test system: A549 NSCLC
[4] = test system: ACHN renal
[5] = test system: BT-549 breast
[6] = test system: CAKI-1 renal
[7] = test system: CCRF-CEM leukemia
[8] = test system: COLO 205 colon
[9] = test system: DU-145 prostate
[10] = test system: EKVX NSCLC
[11] = test system: HCC-2998 colon
[12] = test system: HCT-116 colon
[13] = test system: HCT-15 colon
[14] = test system: HL-60(TB) leukemia
[15] = test system: HOP-62 NSCLC
[16] = test system: HS 578T breast
[17] = test system: HT29 colon
[18] = test system: IGROV1 ovarian
[19] = test system: K-562 leukemia
[20] = test system: KM12 colon
[21] = test system: LOX IMVI melanoma
[22] = test system: M14 melanoma
[23] = test system: MALME-3M melanoma
[24] = test system: MCF7 breast
[25] = test system: MDA-MB-231 breast
[26] = test system: MDA-MB-435
[27] = test system: MDA-N
[28] = test system: MOLT-4 leukemia
[29] = test system: NCI-H226 lung
[30] = test system: NCI-H23 lung
[31] = test system: NCI-H460 lung
[32] = test system: NCI-H522 lung
[33] = test system: NCI/ADR-RES ovarian
[34] = test system: OVCAR-3 ovarian
[35] = test system: OVCAR-4 ovarian
[36] = test system: OVCAR-5 ovarian
[37] = test system: OVCAR-8 ovarian
[38] = test system: PC-3 prostate
[39] = test system: RPMI-8226 leukemia
[40] = test system: RXF 393 renal
[41] = test system: SF-268 CNS
[42] = test system: SF-295 CNS
[43] = test system: SF-539 CNS
[44] = test system: SK-MEL-2 melanoma
[45] = test system: SK-MEL-28 melanoma
[46] = test system: SK-MEL-5 melanoma
[47] = test system: SK-OV-3 ovarian
[48] = test system: SN12C renal
[49] = test system: SNB-19 CNS
[50] = test system: SNB-75 CNS
[51] = test system: SW-620 colon
[52] = test system: T-47D breast
[53] = test system: TK-10 renal
[54] = test system: U251 CNS
[55] = test system: UACC-257 melanoma
[56] = test system: UACC-62 melanoma
[57] = test system: HOP-92 NSCLC
[58] = test system: UO-31 renal

Molecule `Cc1cccc2[nH]c3c(c(O)cc4[nH]c5cccc(C)c5c(=O)c43)c(=O)c12` has a TGI [1] of 8.03 µM, a TGI [2] of over 10 µM and a TGI [3] of over 10 µM. The TGI [4] was over 10 µM, the TGI [5] was over 10 µM and the TGI [6] was over 10 µM. For the same molecule, the TGI [7] was over 10 µM, the TGI [8] was over 10 µM and the TGI [9] was over 10 µM. It also gave a TGI [10] of over 10 µM, a TGI [11] of over 10 µM and a TGI [12] of over 10 µM. The TGI [13] was over 10 µM, the TGI [14] was over 10 µM and the TGI [15] was over 10 µM. It also gave a TGI [16] of over 10 µM, a TGI [17] of over 10 µM and a TGI [18] of over 10 µM. It also gave a TGI [19] of over 10 µM, a TGI [20] of over 10 µM and a TGI [21] of over 10 µM. It also gave a TGI [22] of over 10 µM, a TGI [23] of over 10 µM and a TGI [24] of over 10 µM. It also gave a TGI [25] of over 10 µM, a TGI [26] of over 10 µM and a TGI [27] of over 10 µM. For the same molecule, the TGI [28] was over 10 µM, the TGI [29] was over 10 µM and the TGI [30] was 8.5 µM. For the same molecule, the TGI [31] was over 10 µM, the TGI [32] was over 10 µM and the TGI [33] was over 10 µM. It also gave a TGI [34] of over 10 µM, a TGI [35] of over 10 µM and a TGI [36] of over 10 µM. For the same molecule, the TGI [37] was over 10 µM, the TGI [38] was over 10 µM and the TGI [39] was over 10 µM. The TGI [40] was over 10 µM, the TGI [41] was over 10 µM and the TGI [42] was over 10 µM. It also gave a TGI [43] of over 10 µM, a TGI [44] of over 10 µM and a TGI [45] of over 10 µM. It also gave a TGI [46] of over 10 µM, a TGI [47] of over 10 µM and a TGI [48] of over 10 µM. It also gave a TGI [49] of over 10 µM, a TGI [50] of over 10 µM and a TGI [51] of over 10 µM. The TGI [52] was over 10 µM, the TGI [53] was over 10 µM and the TGI [54] was over 10 µM. The TGI [55] was over 10 µM and the TGI [56] was over 10 µM.
With `CC(O)c1cc2c(s1)C(=O)c1c(C(C)O)csc1C2=O` (configuration not stated) the TGI [1] was 2.08 µM, the TGI [2] was 0.462 µM and the TGI [3] was 0.355 µM. For the same molecule, the TGI [4] was 1.38 µM, the TGI [5] was 0.378 µM and the TGI [6] was 1.01 µM. The TGI [7] was 0.492 µM, the TGI [8] was 2.58 µM and the TGI [9] was 0.242 µM. The TGI [10] was 1.13 µM, the TGI [11] was 1.07 µM and the TGI [12] was 1.07 µM. It also gave a TGI [13] of 0.422 µM, a TGI [14] of 0.0415 µM and a TGI [15] of 0.439 µM. It also gave a TGI [57] of 0.762 µM, a TGI [16] of 0.804 µM and a TGI [17] of 2.7 µM. It also gave a TGI [18] of 0.468 µM, a TGI [19] of 0.616 µM and a TGI [20] of 1.08 µM. For the same molecule, the TGI [21] was 1.53 µM, the TGI [23] was 0.115 µM and the TGI [24] was over 100 µM. The TGI [25] was 0.482 µM, the TGI [26] was 0.183 µM and the TGI [27] was 0.0483 µM. For the same molecule, the TGI [29] was 0.959 µM, the TGI [30] was 0.24 µM and the TGI [31] was 0.148 µM. For the same molecule, the TGI [32] was 1.13 µM, the TGI [33] was 0.593 µM and the TGI [34] was 0.135 µM. The TGI [35] was 0.524 µM, the TGI [36] was 1.35 µM and the TGI [37] was 0.717 µM. It also gave a TGI [38] of 0.514 µM, a TGI [39] of 0.801 µM and a TGI [40] of 0.656 µM. It also gave a TGI [41] of 1.32 µM, a TGI [42] of 0.255 µM and a TGI [43] of 0.449 µM. For the same molecule, the TGI [44] was 0.292 µM, the TGI [45] was 0.466 µM and the TGI [46] was 0.0716 µM. The TGI [47] was 1.76 µM, the TGI [48] was 0.349 µM and the TGI [49] was 1.08 µM. It also gave a TGI [50] of 0.566 µM, a TGI [51] of 0.833 µM and a TGI [52] of 0.667 µM. It also gave a TGI [53] of 1.79 µM, a TGI [54] of 4.32 µM and a TGI [55] of 0.216 µM. The TGI [56] was 0.183 µM and the TGI [58] was 0.776 µM.
